Key:
SREBP-2 = SREBP-2 (Homo sapiens (Human), UniProt Q12772); test: In vitro assay SREBP-2: PathHunter U2OS SREBP-2 Nuclear Translocation Cell Line, U18666A-stimulated; type: cell-based; settings: PathHunter U2OS SREBP-2 nuclear translocation cells, U18666A 10 μM, overnight (16 hours)
LXRβ = LXRβ (Homo sapiens (Human), UniProt P55055); test: In vitro assay LXRβ: PathHunter NHR CHO cells, LXRβ / Steroid Receptor Co-activator Peptide enzyme fragment complementation; type: cell-based; settings: PathHunter NHR CHO cells, full-length human LXRβ and SRCP, chemiluminescent signal; read-out: LXRβ PPI
Chain of LXRβ (P55055 whole entry, the tested form may be a part): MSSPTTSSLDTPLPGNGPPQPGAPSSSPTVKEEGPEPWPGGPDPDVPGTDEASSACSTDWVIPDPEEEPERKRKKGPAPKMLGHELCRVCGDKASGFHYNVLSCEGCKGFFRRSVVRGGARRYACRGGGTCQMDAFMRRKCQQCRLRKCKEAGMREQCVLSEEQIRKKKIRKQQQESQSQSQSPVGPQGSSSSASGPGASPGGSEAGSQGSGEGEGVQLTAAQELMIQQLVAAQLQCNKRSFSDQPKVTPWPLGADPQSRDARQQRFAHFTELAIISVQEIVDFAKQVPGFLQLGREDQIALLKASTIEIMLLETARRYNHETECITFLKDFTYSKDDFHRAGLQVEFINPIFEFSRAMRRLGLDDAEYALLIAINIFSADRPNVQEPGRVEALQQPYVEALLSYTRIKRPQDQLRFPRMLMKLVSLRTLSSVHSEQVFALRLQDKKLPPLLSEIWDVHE
Summary of the method: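 Enzyme fragment complementation read-out: CHO cells stably expressing ProLink-tagged full-length human LXRβ plus nuclear enzyme acceptor–SRCP fusion, seeded and held overnight at 37° C. Medium with charcoal-dextran filtered serum; final vehicle 1%. Chemiluminescence measured after signal generation.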

`C=CCN1C[C@@H]2CON(C(=O)CC[C@@H](C)[C@H]3CC[C@H]4[C@@H]5CC=C6C[C@@H](O)CC[C@]6(C)[C@H]5CC[C@]34C)[C@@H]2C1` [Example 46, (R)-1-((3aS,6aS)-5-allylhexahydro-1H-pyrrolo[3,4-c]isoxazol-1-yl)-4-((3S,8S,9S,10R,13R,14S,17R)-3-hydroxy-10,13-dimethyl-2,3,4,7,8,9,10,11,12,13,14,15,16,17-tetradecahydro-1H-cyclopenta[a]phenanthren-17-yl)pentan-1-one] was tested, and the IC50 (SREBP-2) was 250 to 1000 nM and the EC50 (LXRβ) was greater than 10000 nM.

`C[C@H](CCC(=O)N1OC(C)(C)[C@H]2COC[C@H]21)[C@H]1CC[C@H]2[C@@H]3CC=C4C[C@@H](O)CC[C@]4(C)[C@H]3CC[C@]12C` [Example 49, (R)-1-((3aR,6aS)-3,3-dimethyltetrahydro-1H,3H-furo[3,4-c]isoxazol-1-yl)-4-((3S,8S,9S,10R,13R,14S,17R)-3-hydroxy-10,13-dimethyl-2,3,4,7,8,9,10,11,12,13,14,15,16,17-tetradecahydro-1H-cyclopenta[a]phenanthren-17-yl)pentan-1-one] was tested, and the IC50 (SREBP-2) was 250 to 1000 nM and the EC50 (LXRβ) was 250 to 1000 nM.

In the case of `CON(CCO)C(=O)CC[C@@H](C)[C@H]1CC[C@H]2[C@@H]3CC=C4C[C@@H](O)CC[C@]4(C)[C@H]3CC[C@]12C` [Example 62, (R)-4-((3S,8S,9S,10R,13R,14S,17R)-3-hydroxy-10,13-dimethyl-2,3,4,7,8,9,10,11,12,13,14,15,16,17-tetradecahydro-1H-cyclopenta[a]phenanthren-17-yl)-N-(2-hydroxyethyl)-N-methoxypentanamide], the IC50 (SREBP-2) is reported as 250 to 1000 nM and the EC50 (LXRβ) is reported as 250 to 1000 nM.

Compound `CON(CC(=O)O)C(=O)CC[C@@H](C)[C@H]1CC[C@H]2[C@@H]3CC=C4C[C@@H](O)CC[C@]4(C)[C@H]3CC[C@]12C` [Example 63, N—((R)-4-((3S,8S,9S,10R,13R,14S,17R)-3-hydroxy-10,13-dimethyl-2,3,4,7,8,9,10,11,12,13,14,15,16,17-tetradecahydro-1H-cyclopenta[a]phenanthren-17-yl)pentanoyl)-N-methoxyglycine] has an IC50 (SREBP-2) greater than 10000 nM and an EC50 (LXRβ) of 250 to 1000 nM.

`CON(CCN)C(=O)CC[C@@H](C)[C@H]1CC[C@H]2[C@@H]3CC=C4C[C@@H](O)CC[C@]4(C)[C@H]3CC[C@]12C` [Example 64, (R)—N-(2-aminoethyl)-4-((3S,8S,9S,10R,13R,14S,17R)-3-hydroxy-10,13-dimethyl-2,3,4,7,8,9,10,11,12,13,14,15,16,17-tetradecahydro-1H-cyclopenta[a]phenanthren-17-yl)-N-methoxypentanamide] gave an IC50 (SREBP-2) of 250 to 1000 nM and an EC50 (LXRβ) of less than 250 nM.

`CON(C(=O)CC[C@@H](C)[C@H]1CC[C@H]2[C@@H]3CC=C4C[C@@H](O)CC[C@]4(C)[C@H]3CC[C@]12C)C(C)CO` (stereo partly drawn) [Example 66, (4R)-4-((3S,8S,9S,10R,13R,14S,17R)-3-hydroxy-10,13-dimethyl-2,3,4,7,8,9,10,11,12,13,14,15,16,17-tetradecahydro-1H-cyclopenta[a]phenanthren-17-yl)-N-(1-hydroxypropan-2-yl)-N-methoxypentanamide] gave an IC50 (SREBP-2) of 250 to 1000 nM and an EC50 (LXRβ) of 250 to 1000 nM.

`CON(C[C@H](C)O)C(=O)CC[C@@H](C)[C@H]1CC[C@H]2[C@@H]3CC=C4C[C@@H](O)CC[C@]4(C)[C@H]3CC[C@]12C` [Example 69, (R)-4-((3S,8S,9S,10R,13R,14S,17R)-3-hydroxy-10,13-dimethyl-2,3,4,7,8,9,10,11,12,13,14,15,16,17-tetradecahydro-1H-cyclopenta[a]phenanthren-17-yl)-N—((S)-2-hydroxypropyl)-N-methoxypentanamide] showed an IC50 (SREBP-2) of less than 250 nM and an EC50 (LXRβ) of 250 to 1000 nM.

`CON(C[C@@H](C)O)C(=O)CC[C@@H](C)[C@H]1CC[C@H]2[C@@H]3CC=C4C[C@@H](O)CC[C@]4(C)[C@H]3CC[C@]12C` [Example 70, (R)-4-((3S,8S,9S,10R,13R,14S,17R)-3-hydroxy-10,13-dimethyl-2,3,4,7,8,9,10,11,12,13,14,15,16,17-tetradecahydro-1H-cyclopenta[a]phenanthren-17-yl)-N—((R)-2-hydroxypropyl)-N-methoxypentanamide] was tested, and the IC50 (SREBP-2) was 250 to 1000 nM and the EC50 (LXRβ) was 250 to 1000 nM.

For `CON(C(=O)CC[C@@H](C)[C@H]1CC[C@H]2[C@@H]3CC=C4C[C@@H](O)CC[C@]4(C)[C@H]3CC[C@]12C)[C@H](C)CO` [Example 71, (R)-4-((3S,8S,9S,10R,13R,14S,17R)-3-hydroxy-10,13-dimethyl-2,3,4,7,8,9,10,11,12,13,14,15,16,17-tetradecahydro-1H-cyclopenta[a]phenanthren-17-yl)-N—((R)-1-hydroxypropan-2-yl)-N-methoxypentanamide], the IC50 (SREBP-2) was 250 to 1000 nM and the EC50 (LXRβ) was 250 to 1000 nM.

Work on `CON(C(=O)CC[C@@H](C)[C@H]1CC[C@H]2[C@@H]3CC=C4C[C@@H](O)CC[C@]4(C)[C@H]3CC[C@]12C)[C@@H](C)CO` [Example 72, (R)-4-((3S,8S,9S,10R,13R,14S,17R)-3-hydroxy-10,13-dimethyl-2,3,4,7,8,9,10,11,12,13,14,15,16,17-tetradecahydro-1H-cyclopenta[a]phenanthren-17-yl)-N—((S)-1-hydroxypropan-2-yl)-N-methoxypentanamide] yielded an IC50 (SREBP-2) of 250 to 1000 nM and an EC50 (LXRβ) of 250 to 1000 nM.

Compound `C[C@H](CCC(=O)N1CCC[C@@H](c2ccccc2)C1)[C@H]1CC[C@H]2[C@@H]3CC=C4C[C@@H](O)CC[C@]4(C)[C@H]3CC[C@]12C` [Example 76, (R)-4-((3S,8S,9S,10R,13R,14S,17R)-3-hydroxy-10,13-dimethyl-2,3,4,7,8,9,10,11,12,13,14,15,16,17-tetradecahydro-1H-cyclopenta[a]phenanthren-17-yl)-1-((S)-3-phenylpiperidin-1-yl)pentan-1-one] has an IC50 (SREBP-2) of less than 250 nM and an EC50 (LXRβ) of 1000 to 10000 nM.

`C[C@H](CCC(=O)N1CCC[C@H](c2ccccc2)C1)[C@H]1CC[C@H]2[C@@H]3CC=C4C[C@@H](O)CC[C@]4(C)[C@H]3CC[C@]12C` [Example 77, (R)-4-((3S,8S,9S,10R,13R,14S,17R)-3-hydroxy-10,13-dimethyl-2,3,4,7,8,9,10,11,12,13,14,15,16,17-tetradecahydro-1H-cyclopenta[a]phenanthren-17-yl)-1-((R)-3-phenylpiperidin-1-yl) pentan-1-one] showed an IC50 (SREBP-2) of less than 250 nM and an EC50 (LXRβ) of 1000 to 10000 nM.

`C[C@H](CCC(=O)N1C[C@@H]2C[C@]2(c2ccccc2)C1)[C@H]1CC[C@H]2[C@@H]3CC=C4C[C@@H](O)CC[C@]4(C)[C@H]3CC[C@]12C` [Example 78, (4R)-4-((3S,8S,9S,10R,13R,14S,17R)-3-hydroxy-10,13-dimethyl-2,3,4,7,8,9,10,11,12,13,14,15,16,17-tetradecahydro-1H-cyclopenta[a]phenanthren-17-yl)-1-(1-phenyl-3-azabicyclo[3.1.0]hexan-3-yl)pentan-1-one] showed an IC50 (SREBP-2) of less than 250 nM and an EC50 (LXRβ) of 1000 to 10000 nM.

`C[C@H](CCC(=O)N1CCC(F)(F)CC1)[C@H]1CC[C@H]2[C@@H]3CC=C4C[C@@H](O)CC[C@]4(C)[C@H]3CC[C@]12C` [Example 79, (R)-1-(4,4-difluoropiperidin-1-yl)-4-((3S,8S,9S,10R,13R,14S,17R)-3-hydroxy-10,13-dimethyl-2,3,4,7,8,9,10,11,12,13,14,15,16,17-tetradecahydro-1H-cyclopenta[a]phenanthren-17-yl) pentan-1-one] showed an IC50 (SREBP-2) of less than 250 nM and an EC50 (LXRβ) of 1000 to 10000 nM.

`C[C@H](CCC(=O)N1CCC2(CC1)COC2)[C@H]1CC[C@H]2[C@@H]3CC=C4C[C@@H](O)CC[C@]4(C)[C@H]3CC[C@]12C` [Example 80, (R)-4-((3S,8S,9S,10R,13R,14S,17R)-3-hydroxy-10,13-dimethyl-2,3,4,7,8,9,10,11,12,13,14,15,16,17-tetradecahydro-1H-cyclopenta[a]phenanthren-17-yl)-1-(2-oxa-7-azaspiro[3.5]nonan-7-yl)pentan-1-one] was tested, and the IC50 (SREBP-2) was less than 250 nM and the EC50 (LXRβ) was 1000 to 10000 nM.

`C[C@H](CCC(=O)N1CCCOCC1)[C@H]1CC[C@H]2[C@@H]3CC=C4C[C@@H](O)CC[C@]4(C)[C@H]3CC[C@]12C` [Example 81, (R)-4-((3S,8S,9S,10R,13R,14S,17R)-3-hydroxy-10,13-dimethyl-2,3,4,7,8,9,10,11,12,13,14,15,16,17-tetradecahydro-1H-cyclopenta[a]phenanthren-17-yl)-1-(1,4-oxazepan-4-yl)pentan-1-one] showed an IC50 (SREBP-2) of less than 250 nM and an EC50 (LXRβ) of 250 to 1000 nM.

In the case of `C[C@H](CCC(=O)N1CCC(C(F)(F)F)CC1)[C@H]1CC[C@H]2[C@@H]3CC=C4C[C@@H](O)CC[C@]4(C)[C@H]3CC[C@]12C` [Example 82, (R)-4-((3S,8S,9S,10R,13R,14S,17R)-3-hydroxy-10,13-dimethyl-2,3,4,7,8,9,10,11,12,13,14,15,16,17-tetradecahydro-1H-cyclopenta[a]phenanthren-17-yl)-1-(4-(trifluoromethyl)piperidin-1-yl)pentan-1-one], the IC50 (SREBP-2) is reported as less than 250 nM and the EC50 (LXRβ) is reported as greater than 10000 nM.

Work on `CC(=O)NC1(C)CCN(C(=O)CC[C@@H](C)[C@H]2CC[C@H]3[C@@H]4CC=C5C[C@@H](O)CC[C@]5(C)[C@H]4CC[C@]23C)CC1` [Example 83, N-(1-((R)-4-((3S,8S,9S,10R,13R,14S,17R)-3-hydroxy-10,13-dimethyl-2,3,4,7,8,9,10,11,12,13,14,15,16,17-tetradecahydro-1H-cyclopenta[a]phenanthren-17-yl)pentanoyl)-4-methylpiperidin-4-yl)acetamide] yielded an IC50 (SREBP-2) of 250 to 1000 nM and an EC50 (LXRβ) greater than 10000 nM.

`C[C@H](CCC(=O)N1CCC(C)(NS(C)(=O)=O)CC1)[C@H]1CC[C@H]2[C@@H]3CC=C4C[C@@H](O)CC[C@]4(C)[C@H]3CC[C@]12C` [Example 84, N-(1-((R)-4-((3S,8S,9S,10R,13R,14S,17R)-3-hydroxy-10,13-dimethyl-2,3,4,7,8,9,10,11,12,13,14,15,16,17-tetradecahydro-1H-cyclopenta[a]phenanthren-17-yl)pentanoyl)-4-methylpiperidin-4-yl)methanesulfonamide] was tested, and the IC50 (SREBP-2) was 250 to 1000 nM and the EC50 (LXRβ) was greater than 10000 nM.

Source: US20230340011A1 (Asteroid Therapeutics, priority 2022, published 2023)
